Reference: patent publication US9303042B2, “Triazolothienopyrimidine compound inhibitors of urea transporters and methods of using inhibitors” (The Regents of the University of California, priority 2012, dated 2016)
Read-outs that look alike come from different tables or passages of the source.

What was measured:
mice = experiment: Urinary concentration in mice; assay type: in vivo, mouse
Description: In some studies, mice were placed on low, normal or […] diets (4%, 20% or 40% casein, Harlan Labs.) for 1 week prior study of dDAVP effects. […] Urea concentration was determined by a colorimetric enzymatic assay as described above. Measurements were also done in the absence of dDAVP in which urine was collected during free access to food and water. […]

[1] = In vitro metabolic stability in hepatic microsomes; assay type: in vitro ADME, rat; conditions: for % Remaining after 10 min incubation with liver microsomes: NADPH, compound 5 μM; for metabolic stability (in words): hepatic microsomes; for % Remaining: parent molecule after 30 min incubation with rat liver microsomes
Description: Compounds, each at 5 μM, were incubated for specified times at 37° C. with rat liver microsomes (1 mg protein/ml; Sigma-Aldrich, St. Louis, Mo.) in potassium phosphate buffer (100 mM) containing 1 mM NADPH. The mixture was then chilled on ice, and 0.5 ml of ice-cold ethyl acetate was added.

UT-B = target: T1, UT-B (Mus musculus, UniProt Q8VHL0); experiment: Erythrocyte lysis assay of UT-B inhibition; assay type: cell-based; design: Screening was performed using mouse erythrocytes, which strongly express UT-B; endogenous in cells; host or cells: erythrocytes in whole blood of wild-type CD1 mice; conditions: read-out: IC50
T1 sequence (Q8VHL0 1-384): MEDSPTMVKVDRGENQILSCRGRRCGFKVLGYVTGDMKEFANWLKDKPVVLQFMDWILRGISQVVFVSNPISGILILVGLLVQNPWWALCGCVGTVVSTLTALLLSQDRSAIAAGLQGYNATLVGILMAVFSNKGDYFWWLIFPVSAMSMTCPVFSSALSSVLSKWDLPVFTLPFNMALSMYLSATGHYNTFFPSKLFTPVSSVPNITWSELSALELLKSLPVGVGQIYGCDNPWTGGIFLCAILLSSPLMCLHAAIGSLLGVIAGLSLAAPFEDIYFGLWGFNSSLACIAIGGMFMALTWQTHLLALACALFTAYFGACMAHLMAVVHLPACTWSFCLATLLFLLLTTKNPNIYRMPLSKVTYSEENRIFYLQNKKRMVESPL
Description: Screening was performed using mouse erythrocytes, which strongly express UT-B and are highly water permeable because the cells also express aquaporin-1 (AQP1) water channels. The screening method involved assay of erythrocyte lysis in response to a large, outwardly directed gradient of acetamide, a urea analog that is transported efficiently by UT-B. A large, outwardly directed gradient of acetamide causes transient cell swelling, but little cell lysis, because UT-B-facilitated acetamide efflux limits water influx (see FIG. 1A). UT-B inhibition prevents acetamide efflux, allowing unopposed cell swelling and consequent cell lysis, which was recorded by reduced near-infrared light absorption at 710 nm.
Primary screening was done using a collection of 100,000 diverse, drug-like compounds from commercial sources (ChemDiv, San Diego, Calif.; Asinex, Winston-Salem, N.C.). […] Vigorous mixing was achieved by repeated pipetting. Erythrocyte lysis was quantified by absorbance at 710 nm wavelength, made within 5 min after hypo-osmolar shock. […] For analysis of structure-activity relationships >900 commercially available analogs (ChemDiv and Asinex) were tested.

[2] = Table 1, commercially available analogues, erythrocyte lysis assay
[3] = Table 2, synthesized inhibitors, red blood cell lysis assay (n = 3), single-site saturation model

| Compound | % Remaining after 10 min incubation with liver microsomes [1] [%] | IC50 (UT-B; [2]) [nM] | other results |
| --- | --- | --- | --- |
| [1-deamino-8-D-arginine]-vasopressin [dDAVP, reference compound] | – | – | urine osmolality after dDAVP (mice; control (formulation alone) mice): > 3 Osm/kg H2O; urine osmolality following dDAVP (mice; dDAVP 1 μg/kg intraperitoneal, over several hours): > 3000 mosm/kg H2O |
| Cc1ccc(S(=O)(=O)c2nnn3c2nc(NCc2ccc(Cl)cc2)c2sccc23)cc1C [Compound 2bc, [3-(3,4-dimethyl-benzenesulfonyl)-thieno[2,3-e][1,2,3]triazolo[1,5-a]pyrimidin-5-yl]-(4-chloro-benzyl)-amine] | 83 | 582 | metabolic stability (in words) [1]: improved metabolic stability |
| Cc1ccc(S(=O)(=O)c2nnn3c2nc(N2CCCCC2)c2sccc23)cc1C [Compound 2az] | <2 | 1760 | – |
| CC(C)c1ccc(S(=O)(=O)c2nnn3c2nc(NCc2cccs2)c2sccc23)cc1 [Compound 3a, [3-(4-Isopropylbenzenesulfonyl)-thieno[2,3-e][1,2,3]triazolo[1,5-a]pyrimidin-5-yl]-thiophen-2-ylmethyl-amine] | – | 125 | % Remaining [1]: <5%; IC50 (UT-B; [3]): 153 nM |
| O=S(=O)(c1ccc(OC(F)(F)F)cc1)c1nnn2c1nc(NCc1cccs1)c1sccc12 [Compound 3d, Thiophen-2-ylmethyl-[3-(4-trifluoromethoxy-benzenesulfonyl)-thieno[2,3-e][1,2,3]triazolo[1,5-a]pyrimidin-5-yl]-amine] | – | – | metabolic stability (in words) [1]: improved metabolic stability; % Remaining [1]: 95%; IC50 (UT-B; [3]): 1120 nM |
| CCOCCCNc1nc2c(S(=O)(=O)c3ccc(C)c(C)c3)nnn2c2ccsc12 [Compound 2aw, {3-[3,4-dimethyl-benzenesulfonyl]-thieno[2,3-e][1,2,3]triazolo[1,5-a]pyrimidin-5-yl}-3-ethoxylpropyl-amine] | 2 | 520 | – |
| Cc1ccc(S(=O)(=O)c2nnn3c2nc(N2CCOCC2)c2sccc23)cc1C [Compound 2an] | 6 | 1710 | – |
| O=S(=O)(c1cccs1)c1nnn2c1nc(NCc1cccs1)c1sccc12 [Compound 3g, [3-(Thiophene-2-sulfonyl)-thieno[2,3-e][1,2,3]triazolo[1,5-a]pyrimidin-5-yl]-thiophen-2-ylmethyl-amine] | – | – | % Remaining [1]: <5%; IC50 (UT-B; [3]): 196 nM |
| COCCCNc1nc2c(S(=O)(=O)c3ccccc3)nnn2c2ccsc12 [Compound 2ab, {3-benzenesulfonyl-thieno[2,3-e][1,2,3]triazolo[1,5-a]pyrimidin-5-yl}-3-methoxypropyl-amine] | 27 | 4350 | – |
| CC(C)c1ccc(S(=O)(=O)c2nnn3c2nc(NCc2ccco2)c2sccc23)cc1 [Compound 3b, Furan-2-ylmethyl-[3-(4-isopropyl-benzenesulfonyl)-thieno[2,3-e][1,2,3]triazolo[1,5-a]pyrimidin-5-yl]-amine] | – | – | % Remaining [1]: >99%; IC50 (UT-B; [3]): 16600 nM |
| Cc1ccc(S(=O)(=O)c2nnn3c2nc(NCc2ccc(F)cc2)c2sccc23)cc1 [Compound 2aj, [3-(4-methyl-benzenesulfonyl)-thieno[2,3-e][1,2,3]triazolo[1,5-a]pyrimidin-5-yl]-(4-fluoro-benzyl)-amine] | 86 | 733 | metabolic stability (in words) [1]: improved metabolic stability |

More lines, main results first:

| % Remaining after 10 min incubation with liver microsomes [1] [%] | IC50 (UT-B; [2]) [nM] | Compound | other results |
| --- | --- | --- | --- |
| 12 | – | CCc1ccc(S(=O)(=O)c2nnn3c2nc(NCc2ccco2)c2sccc23)cc1 [Compound 2bp, furan-2-ylmethyl-[3-(4-ethyl-benzenesulfonyl)-thieno[2,3-e][1,2,3]triazolo[1,5-a]pyrimidin-5-yl]-amine] | IC50 (UT-B; erythrocyte lysis assay): 239 nM |
| <2 | 334 | CCc1ccc(S(=O)(=O)c2nnn3c2nc(NCCOC)c2sccc23)cc1 [Compound 2by, {3-[4-ethyl-benzenesulfonyl]-thieno[2,3-e][1,2,3]triazolo[1,5-a]pyrimidin-5-yl}-2-methoxyethyl-amine] | – |
| 44 | 664 | CCc1ccc(S(=O)(=O)c2nnn3c2nc(NCc2ccccc2)c2sccc23)cc1 [Compound 2br, [3-(4-ethyl-benzenesulfonyl)-thieno[2,3-e][1,2,3]triazolo[1,5-a]pyrimidin-5-yl]-benzyl-amine] | – |
| <2 | 37 | Cc1ccc(S(=O)(=O)c2nnn3c2nc(NCc2cccs2)c2sccc23)cc1C [Compound 2bd, {3-[3,4-dimethyl-benzenesulfonyl]-thieno[2,3-e][1,2,3]triazolo[1,5-a]pyrimidin-5-yl}-thiophen-2-ylmethyl-amine] | – |
| 41 | 384 | CCc1ccc(S(=O)(=O)c2nnn3c2nc(NCc2ccc(F)cc2)c2sccc23)cc1 [Compound 2ca, [3-(4-ethyl-benzenesulfonyl)-thieno[2,3-e][1,2,3]triazolo[1,5-a]pyrimidin-5-yl]-(4-fluoro-benzyl)-amine] | – |
| 61 | 1450 | Cc1ccc(C)c(S(=O)(=O)c2nnn3c2nc(NCCC(C)C)c2sccc23)c1 [Compound 2cj] | – |
| 29 | 1190 | COCCNc1nc2c(S(=O)(=O)c3cc(C)ccc3C)nnn2c2ccsc12 [Compound 2co, {3-[2,5-dimethyl-benzenesulfonyl]-thieno[2,3-e][1,2,3]triazolo[1,5-a]pyrimidin-5-yl}-2-methoxyethyl-amine] | – |
| 26 | 1400 | COCCCNc1nc2c(S(=O)(=O)c3cc(C)ccc3C)nnn2c2ccsc12 [Compound 2cr, {3-[2,5-dimethyl-benzenesulfonyl]-thieno[2,3-e][1,2,3]triazolo[1,5-a]pyrimidin-5-yl}-3-methoxypropyl-amine] | – |
| 34 | 585 | CCc1ccc(S(=O)(=O)c2nnn3c2nc(NC(C)c2ccccc2)c2sccc23)cc1 (stereo not shown) [Compound 2bw, [3-(4-ethyl-benzenesulfonyl)-thieno[2,3-e][1,2,3]triazolo[1,5-a]pyrimidin-5-yl]-(1-phenyl-1-methyl)methyl-amine] | – |
| <2 | 291 | CCc1ccc(S(=O)(=O)c2nnn3c2nc(NCc2cccc(OC)c2)c2sccc23)cc1 [Compound 2bx, [3-(4-ethyl-benzenesulfonyl)-thieno[2,3-e][1,2,3]triazolo[1,5-a]pyrimidin-5-yl]-(3-methoxy-benzyl)-amine] | – |
